Results: patent publication US20130157954A1, “METHODS FOR TREATMENT OR PROPHYLAXIS OF KIDNEY OR LIVER DYSFUNCTION” (NPS PHARMACEUTICALS, INC., priority 2010, published 2013)

Assay: Example 1: kidney biomarkers (urea nitrogen, creatinine, GFR) in short bowel syndrome patients, every four weeks for 24 weeks; also sorted by >5% change from baseline
Format: in vivo, Human
Conditions: 0.05 mg/kg/day
Procedure: Human patients with short bowel syndrome were divided into three groups: a control group (16 total individuals) to receive placebo, an experimental group (35 total individuals) to receive teduglutide at 0.05 mg/kg/day throughout the study, and an experimental group (32 total individuals) to receive teduglutide at 0.1 mg/kg/day throughout the study. Patients were treated by subcutaneous injection of placebo or the appropriate dose of teduglutide. As individuals with short bowel syndrome are likely to experience associated liver and kidney disease, known biomarkers of liver and kidney function were monitored every four weeks, for 24 weeks. The liver biomarkers tested included total bilirubin, ALT and AST and ALP. The kidney biomarkers tested included urea nitrogen, creatinine and GFR. Before administration of placebo or teduglutide, diagnostic biomarker levels were tested to establish a baseline for each individual.
To visualize the effect of GLP-2 on the levels of the diagnostic biomarkers, the average change from baseline was calculated for the placebo and teduglutide treated groups for each visit after a baseline was established. The average change from baseline of each group is depicted in FIGS. 1-7. The numerical figures for each diagnostic biomarker at each time point are depicted in Table 1.
The raw data for this sorting is reproduced in Table 2 below.

For `CC[C@H](C)[C@H](NC(=O)[C@H](Cc1ccccc1)NC(=O)[C@H](CC(=O)O)NC(=O)[C@H](CCCNC(=N)N)NC(=O)[C@H](C)NC(=O)[C@H](C)NC(=O)[C@H](CC(C)C)NC(=O)[C@H](CC(N)=O)NC(=O)[C@H](CC(=O)O)NC(=O)[C@H](CC(C)C)NC(=O)[C@@H](NC(=O)[C@@H](NC(=O)[C@H](CC(N)=O)NC(=O)[C@H](CCSC)NC(=O)[C@H](CCC(=O)O)NC(=O)[C@H](CC(=O)O)NC(=O)[C@H](CO)NC(=O)[C@H](Cc1ccccc1)NC(=O)[C@H](CO)NC(=O)CNC(=O)[C@H](CC(=O)O)NC(=O)CNC(=O)[C@@H](N)Cc1c[nH]cn1)[C@@H](C)O)[C@@H](C)CC)C(=O)N[C@@H](CC(N)=O)C(=O)N[C@@H](Cc1c[nH]c2ccccc12)C(=O)N[C@@H](CC(C)C)C(=O)N[C@H](C(=O)N[C@@H](CCC(N)=O)C(=O)N[C@H](C(=O)N[C@@H](CCCCN)C(=O)N[C@H](C(=O)N[C@H](C(=O)N[C@@H](CC(=O)O)C(=O)O)[C@@H](C)O)[C@@H](C)CC)[C@@H](C)O)[C@@H](C)CC` [teduglutide], which “CREATININE (RATE BLANKED) change from baseline >5%, number of patients” value (week 12) is on record?
Its value is 16.

What about the “CREATININE (RATE BLANKED) change from baseline >5%, percent of patients” value (week 12) of the same compound?
The value was “(45.7%)”.

What about the “CREATININE (RATE BLANKED) change from baseline −5% <= and <=5%, number of patients” value (week 12) of the same compound?
The value was 4.

And the “CREATININE (RATE BLANKED) change from baseline −5% <= and <=5%, percent of patients” value (week 12)?
The value was “(11.4%)”.

What about the “GFR change from baseline <−5%, number of patients” value (week 12) of the same compound?
The value was 15.

What about the “GFR change from baseline <−5%, percent of patients” value (week 12) of the same compound?
Its value is “(42.9%)”.

What about the “GFR change from baseline >5%, number of patients” value (week 12) of the same compound?
Its value is 6.

What about the “GFR change from baseline >5%, percent of patients” value (week 12) of the same compound?
Its value is “(17.1%)”.

What about the “GFR change from baseline −5% <= and <=5%, number of patients” value (week 12) of the same compound?
Its value is 5.

And the “GFR change from baseline −5% <= and <=5%, percent of patients” value (week 12)?
Its value is “(14.3%)”.

And the “UREA NITROGEN change from baseline <−5%, number of patients” value (week 12)?
The value was 17.

What about the “UREA NITROGEN change from baseline <−5%, percent of patients” value (week 12) of the same compound?
Its value is “(48.6%)”.

And the “UREA NITROGEN change from baseline >5%, number of patients” value (week 12)?
Its value is 6.

And the “UREA NITROGEN change from baseline >5%, percent of patients” value (week 12)?
The value was “(17.1%)”.

What about the “UREA NITROGEN change from baseline −5% <= and <=5%, number of patients” value (week 12) of the same compound?
The value was 4.

What about the “UREA NITROGEN change from baseline −5% <= and <=5%, percent of patients” value (week 12) of the same compound?
Its value is “(11.4%)”.

And the “CREATININE (RATE BLANKED) change from baseline <−5%, number of patients” value (week 16)?
Its value is 8.

What about the “CREATININE (RATE BLANKED) change from baseline <−5%, percent of patients” value (week 16) of the same compound?
The value was “(22.9%)”.

And the “CREATININE (RATE BLANKED) change from baseline >5%, number of patients” value (week 16)?
The value was 8.

And the “CREATININE (RATE BLANKED) change from baseline >5%, percent of patients” value (week 16)?
The value was “(22.9%)”.

What about the “CREATININE (RATE BLANKED) change from baseline −5% <= and <=5%, number of patients” value (week 16) of the same compound?
Its value is 12.

What about the “CREATININE (RATE BLANKED) change from baseline −5% <= and <=5%, percent of patients” value (week 16) of the same compound?
The value was “(34.3%)”.

What about the “GFR change from baseline <−5%, number of patients” value (week 16) of the same compound?
Its value is 7.

What about the “GFR change from baseline <−5%, percent of patients” value (week 16) of the same compound?
The value was “(20.0%)”.

And the “GFR change from baseline >5%, number of patients” value (week 16)?
The value was 11.

And the “GFR change from baseline >5%, percent of patients” value (week 16)?
Its value is “(31.4%)”.

What about the “GFR change from baseline −5% <= and <=5%, number of patients” value (week 16) of the same compound?
Its value is 10.

And the “GFR change from baseline −5% <= and <=5%, percent of patients” value (week 16)?
The value was “(28.6%)”.

And the “UREA NITROGEN change from baseline <−5%, number of patients” value (week 16)?
The value was 12.

What about the “UREA NITROGEN change from baseline <−5%, percent of patients” value (week 16) of the same compound?
Its value is “(34.3%)”.

And the “UREA NITROGEN change from baseline >5%, number of patients” value (week 16)?
The value was 10.

What about the “UREA NITROGEN change from baseline >5%, percent of patients” value (week 16) of the same compound?
Its value is “(28.6%)”.

What about the “UREA NITROGEN change from baseline −5% <= and <=5%, number of patients” value (week 16) of the same compound?
Its value is 6.

What about the “UREA NITROGEN change from baseline −5% <= and <=5%, percent of patients” value (week 16) of the same compound?
Its value is “(17.1%)”.

And the “CREATININE (RATE BLANKED) change from baseline <−5%, number of patients” value (week 20)?
The value was 9.

What about the “CREATININE (RATE BLANKED) change from baseline <−5%, percent of patients” value (week 20) of the same compound?
Its value is “(25.7%)”.

And the “CREATININE (RATE BLANKED) change from baseline >5%, number of patients” value (week 20)?
The value was 10.

What about the “CREATININE (RATE BLANKED) change from baseline >5%, percent of patients” value (week 20) of the same compound?
Its value is “(28.6%)”.

And the “CREATININE (RATE BLANKED) change from baseline −5% <= and <=5%, number of patients” value (week 20)?
Its value is 8.

What about the “CREATININE (RATE BLANKED) change from baseline −5% <= and <=5%, percent of patients” value (week 20) of the same compound?
Its value is “(22.9%)”.

And the “GFR change from baseline <−5%, number of patients” value (week 20)?
The value was 10.

What about the “GFR change from baseline <−5%, percent of patients” value (week 20) of the same compound?
The value was “(28.6%)”.

What about the “GFR change from baseline >5%, number of patients” value (week 20) of the same compound?
Its value is 10.

What about the “GFR change from baseline >5%, percent of patients” value (week 20) of the same compound?
The value was “(28.6%)”.

What about the “GFR change from baseline −5% <= and <=5%, number of patients” value (week 20) of the same compound?
Its value is 7.

What about the “GFR change from baseline −5% <= and <=5%, percent of patients” value (week 20) of the same compound?
Its value is “(20.0%)”.

What about the “UREA NITROGEN change from baseline <−5%, number of patients” value (week 20) of the same compound?
Its value is 13.

What about the “UREA NITROGEN change from baseline <−5%, percent of patients” value (week 20) of the same compound?
The value was “(37.1%)”.

What about the “UREA NITROGEN change from baseline >5%, number of patients” value (week 20) of the same compound?
Its value is 7.

And the “UREA NITROGEN change from baseline >5%, percent of patients” value (week 20)?
Its value is “(20.0%)”.

And the “UREA NITROGEN change from baseline −5% <= and <=5%, number of patients” value (week 20)?
Its value is 7.

And the “UREA NITROGEN change from baseline −5% <= and <=5%, percent of patients” value (week 20)?
The value was “(20.0%)”.

And the “CREATININE (RATE BLANKED) change from baseline <−5%, number of patients” value (week 24)?
The value was 8.

And the “CREATININE (RATE BLANKED) change from baseline <−5%, percent of patients” value (week 24)?
The value was “(22.9%)”.

What about the “CREATININE (RATE BLANKED) change from baseline >5%, number of patients” value (week 24) of the same compound?
Its value is 9.

And the “CREATININE (RATE BLANKED) change from baseline >5%, percent of patients” value (week 24)?
Its value is “(25.7%)”.

And the “CREATININE (RATE BLANKED) change from baseline −5% <= and <=5%, number of patients” value (week 24)?
The value was 9.

What about the “CREATININE (RATE BLANKED) change from baseline −5% <= and <=5%, percent of patients” value (week 24) of the same compound?
Its value is “(25.7%)”.

And the “GFR change from baseline <−5%, number of patients” value (week 24)?
Its value is 8.

What about the “GFR change from baseline <−5%, percent of patients” value (week 24) of the same compound?
The value was “(22.9%)”.

And the “GFR change from baseline >5%, number of patients” value (week 24)?
Its value is 10.

What about the “GFR change from baseline >5%, percent of patients” value (week 24) of the same compound?
The value was “(28.6%)”.

What about the “GFR change from baseline −5% <= and <=5%, number of patients” value (week 24) of the same compound?
The value was 8.

And the “GFR change from baseline −5% <= and <=5%, percent of patients” value (week 24)?
Its value is “(22.9%)”.

And the “UREA NITROGEN change from baseline <−5%, number of patients” value (week 24)?
Its value is 17.

And the “UREA NITROGEN change from baseline <−5%, percent of patients” value (week 24)?
The value was “(48.6%)”.

What about the “UREA NITROGEN change from baseline >5%, number of patients” value (week 24) of the same compound?
The value was 7.

What about the “UREA NITROGEN change from baseline >5%, percent of patients” value (week 24) of the same compound?
Its value is “(20.0%)”.

And the “UREA NITROGEN change from baseline −5% <= and <=5%, number of patients” value (week 24)?
The value was 2.

And the “UREA NITROGEN change from baseline −5% <= and <=5%, percent of patients” value (week 24)?
The value was “(5.7%)”.
